Patent US20240366612A1, “COMPOUNDS AND METHODS FOR MODULATING NUCLEIC ACID SPLICING” (REMIX THERAPEUTICS INC., priority 2021, published 2024)

What was measured:
[1] = test system: HiBiT-tagged HTT protein in K562 cells; assay: HiBiT protein abundance assay, HTT; format: cell-based, human; settings: HiBiT-modified K562 cells, 24 hours, luminescence
Protocol: (§1) Compounds described herein were used to screen for effects on quantitative protein abundance using a HiBit assay system (Promega). Quantitative protein abundance was determined by measuring the protein levels of HiBit-tagged protein targets expressed in cell culture via luminescence using the Nano-Glo HiBiT Lytic Detection System, which uses a split complementation assay format to reconstitute NanoBiT enzyme to generate a luminescent signal. A protein abundance assay was developed such that endogenous protein targets could be modified with the HiBiT peptide tag and their abundance could be assessed after compound treatment. Briefly, K562 cell lines containing a HiBiT-modification were treated with various compounds described herein (e.g., compounds of Formulas (I), (II), or (III)). After treatment for 24 hours, the protein abundance of a specific target was determined by measuring luminescence.
(§2) • Promega Nano-Glo HiBiT Lytic Detection System (cat #N3030) • Corning 384-well TC-treated microplates (cat #3570) • Synthego Engineered Cells Knock-In Clones
(§3) Cells were maintained in IMDM with 10% FBS. Before the assay, cells were diluted with […] growth media (IMDM+1% FBS media) and were seeded in a 384-well plate at a density of 10000 cells/well (for each cell line listed in Table 5). Each compound was prepared as a 10-point 3-fold serial dilution in DMSO with the top dose at a final concentration of 10 μM in the well. Unmodified K562 cells were added at the previously specified density with DMSO to serve as an assay baseline and positive control (PC) and DMSO only with the respective modified cell lines was added to the negative control (NC) columns. Final DMSO concentration was kept at or below 0.25%. Treated cell plates were placed in an incubator at 37° C. with 5% CO2 for 24 hours. After 24 hours, 25 μL of Complete HiBit Lytic reagent was added to each well at room temperature (e.g. one plate requiring 10 mL Lytic Buffer, 100 μL LgBiT Protein, 200 μL Lytic Substrate), shaken for 5 minutes at 600 RPM, then left to sit for 10 minutes for signal to stabilize before reading on a Spark Cyto plate reader (Tecan) with a 500 ms measurement time.
(§4) To determine compound effects on protein abundance of each target in Table 5, the percent response for each respective cell line was calculated at each compound concentration as follows:
(§5) For the normalized response at each concentration, a four-parameter logistical regression was fit to the data and the response was interpolated at the 50% value to determine a concentration for protein abundance at 50% (IC50) the untreated control.

[2] = Cell Titer Glo 2.0 cell viability assay; settings: human, K562 cells
Protocol: Compounds described herein were screened for toxicity in K562 (human chronic myelogenous leukemia) cells using a Cell Titer Glo 2.0 assay.
• Promega CellTiter-Gbo® 2.0 Cell Viability Assay (cat #G9241) • Corning 384-well TC-treated microplates (cat #3570)
Cells were plated at 500 cells/well (K562 cells) in 45 μL of IMDM supplemented with 10% FBS in a 384-well opaque plate. Wells containing only medium were used as a blank control. Test compounds (e.g., compounds of Formula (I), (II), and (III)) were first serially diluted in DMSO then diluted 1:100 with IMDM+10% FBS. The final concentration of DMSO was 0.1% in each well. The cells were incubated for 72 hours at 37° C. and 5% CO2 before assaying with Cell Titer Glo 2.0 reagent.

MYB mRNA = assay: Splicing RT-qPCR assay, MYB canonical (CJ) and alternative (AJ) junction mRNA; format: cell-based; settings: Homo sapiens, A673 or K562 cells, 24 hours treatment; for IC50: decrease in CJ mRNA; for AC50: increase in AJ mRNA
Protocol: Compounds described herein were used to modulate RNA transcript abundance in cells. The expression of a target mRNA was measured by detecting the formation of an exon-exon junction in the canonical transcript (CJ). A compound mediated exon-inclusion event was detected by observing an increase in formation of a new junction with an alternative exon (AJ). Real-time qPCR assays were used to detect these splicing switches and interrogate the potency of various compounds towards different target genes. A high-throughput real time quantitative PCR (RT-qPCR) assay was developed to measure these two isoforms of the mRNA (CJ and AJ) for exemplary genes, such as HTT, SMN2, and MYB, together with a control housekeeping gene, GAPDH or GUSB or PPIA, used for normalization. Briefly, the A673 or K562 cell line was treated with various compounds described herein (e.g., compounds of Formula (I)). After treatment, the levels of the HTT, MYB, or SMN2 mRNA targets were determined from each sample of cell lysate by cDNA synthesis followed by qPCR.
• Cells-to-CT 1-step kit: ThermoFisher A25602, Cells-to-CT lysis reagent: ThermoFisher 4391851C, TaqMan™ Fast Virus 1-Step Master Mix: ThermoFisher 4444436 • GAPDH: VIC-PL, ThermoFisher 4326317E (Assay: Hs99999905_ml)—used for K562/suspension cell lines • GUSB: VIC-PL, ThermoFisher 4326320E (Assay: Hs99999908_ml)—used for K562/suspension cell lines • PPIA: VIC-PL, ThermoFisher 4326316E (Assay: Hs99999904_ml)—used for A673/adherent cell lines
The A673 cell line was cultured in DMEM with 10% FBS. Cells were diluted with full growth media and plated in a 96-well plate (15,000 cells in 100 ul media per well). The plate was incubated at 37° C. with 5% CO2 for 24 hours to allow cells to adhere. An 11-point 3-fold serial dilution of the compounds was made in DMSO then diluted in media in an intermediate plate. Compounds were transferred from the intermediate plate to the cell plate with the top dose at a final concentration of 10 uM in the well. Final DMSO concentration was kept at or below 0.25%. The cell plate was returned to the incubator at 37° C. with 5% CO2 for an additional 24 hours.
The K562 cell line was cultured in IMDM with 10% FBS. For K562, cells were diluted with full growth media and plated in either a 96-well plate (50,000 cells in 50 uL media per well) or a 384-well plate (8,000-40,000 cells in 45 uL media per well). An 11-point 3-fold serial dilution of the compounds were made in DMSO then diluted in media in an intermediate plate. Compound was transferred from the intermediate plate to the cell plate with the top dose at a final concentration of 10 uM in the well. Final DMSO concentration was kept at or below 0.25%. Final volume was 100 uL for 96-well plate and 50 uL for 384-well plate. The cell plate was then placed in an incubator at 37° C. with 5% CO2 for 24 hours.
The cells were then gently washed with 50 uL-100 uL cold PBS before proceeding to addition of lysis buffer. 30 uL-50 μL of room temperature lysis buffer with DNAse I (and optionally RNAsin) was added to each well. Cells were shaken/mixed thoroughly at room temperature for 5-10 minutes for lysis to take place and then 3 uL-5 μL of room temperature stop solution was added and wells were shaken/mixed again. After 2-5 minutes, the cell lysate plate was transferred to ice for RT-qPCR reaction setup. The lysates could also be frozen at −80° C. for later use.
In some cases, a direct lysis buffer was used. An appropriate volume of 3×lysis buffer (10 mM Tris, 150 mM NaCl, 1.5%-2.5% Igepal and 0.1-1 U/uL RNAsin, pH 7.4) was directly added to either K562 or A673 cells in media and mixed by pipetting 3 times. The plates were then incubated at room temperature with shaking/rocking for 20-50 minutes to allow for lysis to take place. After this time, the cell lysate plate was transferred to ice to set up for the RT-qPCR reactions. The lysates could also be frozen at −80° C. for later use. […]

[3] = test system: HiBiT-tagged MYB protein in K562 cells; assay: HiBiT protein abundance assay, MYB; format: cell-based, human; settings: HiBiT-modified K562 cells, 24 hours, luminescence
Protocol: as §1, §2, §3, §4, §5

Structure (SMILES) | IC50 [1] [nM] | GI50 at 72 h [2] [nM] | IC50 (MYB mRNA) [nM] | AC50 (MYB mRNA) [nM] | IC50 [3] [nM]
Cc1cc(-c2cc3ccn(C4CCNCC4)c(=O)c3s2)cc2cn(C)nc12 [Compound 805, 2-(2,7-dimethyl-2H-indazol-5-yl)-6-(piperidin-4-yl)thieno[2,3-c]pyridin-7(6H)-one] | 100 to 1000 | 1000 to 10000 | 100 to 1000 | 100 to 1000 | 100 to 1000
Cc1cn2cc(-c3cc4ncn(C5CNCCC5=O)c(=O)c4s3)cc(F)c2n1 (stereo not drawn) [Compound 279, 3-(6-{8-fluoro-2-methylimidazo[1,2-a]pyridin-6-yl}-4-oxothieno [3,2-d]pyrimidin-3-yl)piperidin-4-one] | > 10000 | > 10000 | > 10000 | > 10000 | > 10000
COc1cc(-c2cc3ncn(C4CCNCC4)c(=O)c3s2)ccn1 [Compound 263] | 1000 to 10000 | 1000 to 10000 | 1000 to 10000 | 1000 to 10000 | 1000 to 10000
Cn1cc2cc(-c3cc4ncn(C5CCNCC5)c(=O)c4s3)cc(C#N)c2n1 [Compound 259] | 100 to 1000 | 1000 to 10000 | 100 to 1000 | 100 to 1000 | 100 to 1000
Cc1cn2cc(-c3cc4ncn(C5=CCNCC5)c(=O)c4s3)cc(F)c2n1 [Compound 276, 6-{8-fluoro-2-methylimidazo[1,2-a]pyridin-6-yl}-3-(1,2,3,6-tetrahydropyridin-4-yl)thieno[3,2-d]pyrimidin-4-one] | 100 to 1000 | 100 to 1000 | 100 to 1000 | 100 to 1000 | 100 to 1000
Cc1cn2cc(-c3cc4ncn([C@H]5CCNC[C@H]5F)c(=O)c4s3)cc(F)c2n1 (relative stereo) [Compound 273, cis-6-{8-fluoro-2-methylimidazo[1,2-a]pyridin-6-yl}-3-[3-fluoropiperidin-4-yl]thieno[3,2-d]pyrimidin-4-one] | 1000 to 10000 | 1000 to 10000 | 100 to 1000 | 100 to 1000 | 1000 to 10000
Cc1cn2cc(-n3cnc4nc(N5CCNCC5)sc4c3=O)cc(F)c2n1 [Compound 226, 6-(8-fluoro-2-methylimidazo[1,2-a]pyridin-6-yl)-2-(piperazin-1-yl)thiazolo[4,5-d]pyrimidin-7(6H)-one] | 100 to 1000 | 100 to 1000 | 100 to 1000 | 100 to 1000 | 100 to 1000
Cc1cn2cc(-c3cc(=O)n4cc(N5CCNC6(CC6)C5)sc4n3)cc(F)c2n1 [Compound 207, 7-(8-fluoro-2-methylimidazo[1,2-a]pyridin-6-yl)-2-(4,7-diazaspiro[2.5]octan-7-yl)-5H-thiazolo[3,2-a]pyrimidin-5-one] | > 10000 | > 10000 | 1000 to 10000 | > 10000 | > 10000
Cc1cn2cc(-c3nn4c(=O)cc(N5CCNCC5)nc4s3)cc(F)c2n1 [Compound 214, 2-(8-fluoro-2-methylimidazo[1,2-a]pyridin-6-yl)-7-(piperazin-1-yl)-5H-[1,3,4]thiadiazolo[3,2-a]pyrimidin-5-one] | > 10000 | 1000 to 10000 | 1000 to 10000 | 1000 to 10000 | > 10000
Cc1cn2cc(-c3cc4ncn(C5CCN(C)CC5)c(=O)c4s3)cc(F)c2n1 [Compound 265, 6-{8-fluoro-2-methylimidazo[1,2-a]pyridin-6-yl}-3-(1-methylpiperidin-4-yl)thieno[3,2-d]pyrimidin-4-one] | 100 to 1000 | 100 to 1000 | 100 to 1000 | 100 to 1000 | 100 to 1000
Cc1cn2cc(-n3cnc4nc(N5CCNCC5)sc4c3=O)cc(C(F)(F)F)c2n1 [Compound 229, 6-(2-methyl-8-(trifluoromethyl)imidazo[1,2-a]pyridin-6-yl)-2-(piperazin-1-yl)thiazolo[4,5-d]pyrimidin-7(6H)-one] | > 10000 | > 10000 | > 10000 | > 10000 | > 10000
Cc1cn2nc(-c3cc4ccn(C5CCNCC5)c(=O)c4s3)cc(C)c2n1 [Compound 806, 2-(2,8-dimethylimidazo[1,2-b]pyridazin-6-yl)-6-(piperidin-4-yl)thieno[2,3-c]pyridin-7(6H)-one] | 100 to 1000 | 100 to 1000 | 100 to 1000 | 100 to 1000 | 100 to 1000
Cn1cc2cc(-n3cnc4nc(N5CCNCC5)sc4c3=O)ccc2n1 [Compound 225, 6-(2-methyl-2H-indazol-5-yl)-2-(piperazin-1-yl)thiazolo[4,5-d]pyrimidin-7(6H)-one] | > 10000 | > 10000 | > 10000 | > 10000 | > 10000
Cc1cn2cc(-c3cc4ccn(C5CCNCC5)c(=O)c4s3)cc(F)c2n1 [Compound 804, 2-(8-fluoro-2-methylimidazo[1,2-a]pyridin-6-yl)-6-(piperidin-4-yl)thieno[2,3-c]pyridin-7(6H)-one] | 100 to 1000 | 100 to 1000 | 100 to 1000 | 100 to 1000 | 100 to 1000
Cc1cn2cc(-c3cc(=O)n4nc(N5CCNC6(CC6)C5)sc4n3)cc(F)c2n1 [Compound 209, 7-(8-fluoro-2-methylimidazo[1,2-a]pyridin-6-yl)-2-(4,7-diazaspiro[2.5]octan-7-yl)-5H-[1,3,4]thiadiazolo[3,2-a]pyrimidin-5-one] | 1000 to 10000 | 1000 to 10000 | 1000 to 10000 | 1000 to 10000 | 1000 to 10000
